Here are results for two compounds from PMC8213057, “Targeting ALK2: An Open Science Approach to Developing Therapeutics for the Treatment of Diffuse Intrinsic Pontine Glioma” (Journal of Medicinal Chemistry, 2020).

Molecules are shown by their SMILES.

For assay [1], the target named is T1, TGFBR2 (Homo sapiens, UniProt P37173).
T1 construct: purchased Reaction Biology Corporation
As to the kind of experiment: 375-member kinase panel. It is filed as biochemical. The note with it: Run 1, Run 2; for % enzyme activity: 1 μM; for remaining activity at 1 µM: read-out: % enzyme activity, 1 μM.

Assay [2] addresses T2, c-MER (Homo sapiens, UniProt Q12866).
T2 sequence (Q12866 21-999): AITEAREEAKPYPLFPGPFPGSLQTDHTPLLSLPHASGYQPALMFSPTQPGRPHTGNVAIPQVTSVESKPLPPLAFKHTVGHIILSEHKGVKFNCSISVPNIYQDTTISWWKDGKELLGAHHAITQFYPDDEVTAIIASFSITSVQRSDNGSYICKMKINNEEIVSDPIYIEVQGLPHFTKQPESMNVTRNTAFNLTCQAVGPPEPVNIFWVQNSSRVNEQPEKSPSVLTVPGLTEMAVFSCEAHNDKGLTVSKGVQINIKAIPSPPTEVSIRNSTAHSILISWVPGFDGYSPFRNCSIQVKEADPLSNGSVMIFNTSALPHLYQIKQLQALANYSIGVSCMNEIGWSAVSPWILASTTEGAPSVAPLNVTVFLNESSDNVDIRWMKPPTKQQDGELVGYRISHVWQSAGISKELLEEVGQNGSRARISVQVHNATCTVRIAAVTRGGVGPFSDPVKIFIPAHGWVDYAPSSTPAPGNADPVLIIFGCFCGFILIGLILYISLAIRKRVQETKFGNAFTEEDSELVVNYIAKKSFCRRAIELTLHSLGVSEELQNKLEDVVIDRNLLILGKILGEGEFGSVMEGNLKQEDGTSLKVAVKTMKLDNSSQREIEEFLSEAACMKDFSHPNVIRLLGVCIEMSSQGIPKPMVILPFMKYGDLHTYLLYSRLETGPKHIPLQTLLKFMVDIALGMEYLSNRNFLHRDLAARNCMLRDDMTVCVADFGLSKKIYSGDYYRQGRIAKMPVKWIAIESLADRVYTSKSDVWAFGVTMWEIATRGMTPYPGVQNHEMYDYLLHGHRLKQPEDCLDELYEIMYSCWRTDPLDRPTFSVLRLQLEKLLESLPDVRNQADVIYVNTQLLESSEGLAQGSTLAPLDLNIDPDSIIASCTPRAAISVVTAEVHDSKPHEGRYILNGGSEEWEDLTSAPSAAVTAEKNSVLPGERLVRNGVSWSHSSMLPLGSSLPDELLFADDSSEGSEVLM
The note with it: 1 μM; Run 1, Run 2.

The target in assay [3] is CAMKK2 (Homo sapiens, UniProt Q96RR4). The note with it: 1 μM; Run 1, Run 2.
The target of assay [4] is CDK5/P25 (Homo sapiens, UniProt Q00535). Particulars: 1 μM; Run 1, Run 2.
The target in assay [5] is TLK2 (Homo sapiens, UniProt Q86UE8). Particulars: 1 μM; Run 1, Run 2.
In assay [6] the target is CAMK1d (Homo sapiens, UniProt Q8IU85). As to the kind of experiment: biochemical. The note with it: read-out: % enzyme activity, 1 μM; Run 1, Run 2.
For assay [7], the target named is T3, CK1a1L (Homo sapiens, UniProt Q8N752).
T3 sequence (Q8N752 1-337): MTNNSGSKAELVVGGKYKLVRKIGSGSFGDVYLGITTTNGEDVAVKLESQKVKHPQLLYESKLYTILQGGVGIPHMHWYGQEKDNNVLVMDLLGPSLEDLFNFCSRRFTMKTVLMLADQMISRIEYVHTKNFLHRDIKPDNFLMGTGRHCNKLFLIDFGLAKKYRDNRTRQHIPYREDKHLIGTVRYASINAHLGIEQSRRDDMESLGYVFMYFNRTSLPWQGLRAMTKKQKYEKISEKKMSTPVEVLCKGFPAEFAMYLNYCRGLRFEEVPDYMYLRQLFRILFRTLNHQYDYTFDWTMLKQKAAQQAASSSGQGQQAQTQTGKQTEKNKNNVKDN
As to the kind of experiment: biochemical. Particulars: read-out: % enzyme activity, 1 μM; Run 1, Run 2.

Assay [8] addresses T4, LKB1 (Homo sapiens, UniProt Q15831).
T4 sequence (Q15831 1-433): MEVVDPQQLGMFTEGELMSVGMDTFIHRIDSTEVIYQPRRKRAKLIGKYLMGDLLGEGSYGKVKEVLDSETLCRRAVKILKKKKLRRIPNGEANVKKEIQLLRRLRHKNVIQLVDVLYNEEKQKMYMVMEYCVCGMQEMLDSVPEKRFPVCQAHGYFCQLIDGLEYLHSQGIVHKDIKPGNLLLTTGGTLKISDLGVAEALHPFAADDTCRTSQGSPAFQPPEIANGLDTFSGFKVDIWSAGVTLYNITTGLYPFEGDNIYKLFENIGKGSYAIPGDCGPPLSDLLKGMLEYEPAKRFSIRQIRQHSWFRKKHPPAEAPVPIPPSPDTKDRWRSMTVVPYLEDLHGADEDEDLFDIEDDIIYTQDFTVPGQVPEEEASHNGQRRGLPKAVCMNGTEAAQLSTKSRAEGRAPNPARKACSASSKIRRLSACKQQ
T4 sequence (Q7RTN6 1-431 partner): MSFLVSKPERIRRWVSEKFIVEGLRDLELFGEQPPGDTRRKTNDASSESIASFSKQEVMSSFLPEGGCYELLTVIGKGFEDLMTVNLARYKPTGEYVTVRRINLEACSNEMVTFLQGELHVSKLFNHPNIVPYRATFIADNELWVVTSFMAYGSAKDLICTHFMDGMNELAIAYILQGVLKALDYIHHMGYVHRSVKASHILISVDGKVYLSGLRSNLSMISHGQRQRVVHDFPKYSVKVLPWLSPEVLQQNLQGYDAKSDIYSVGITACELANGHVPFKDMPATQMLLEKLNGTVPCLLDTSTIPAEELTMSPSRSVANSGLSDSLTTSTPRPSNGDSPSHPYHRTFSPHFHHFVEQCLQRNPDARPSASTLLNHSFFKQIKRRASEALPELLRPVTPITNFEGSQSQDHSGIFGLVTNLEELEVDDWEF
T4 sequence (Q9Y376 1-341 partner): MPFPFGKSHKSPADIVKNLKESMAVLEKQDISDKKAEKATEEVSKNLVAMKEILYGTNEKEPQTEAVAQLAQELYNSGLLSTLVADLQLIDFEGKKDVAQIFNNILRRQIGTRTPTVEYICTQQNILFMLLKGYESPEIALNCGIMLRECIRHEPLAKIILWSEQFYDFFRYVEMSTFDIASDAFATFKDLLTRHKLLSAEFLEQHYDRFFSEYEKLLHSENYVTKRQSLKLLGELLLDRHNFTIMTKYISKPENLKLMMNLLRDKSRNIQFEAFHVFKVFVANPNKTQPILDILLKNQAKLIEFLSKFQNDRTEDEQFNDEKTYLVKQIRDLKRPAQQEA
As to the kind of experiment: biochemical. Particulars: read-out: % enzyme activity, 1 μM; Run 1, Run 2.

Assay [9] deals with SLK/STK2 (Homo sapiens, UniProt Q9H2G2). As to the kind of experiment: biochemical. Particulars: read-out: % enzyme activity, 1 μM; Run 1, Run 2.
Chain of SLK/STK2 (Q9H2G2 whole entry): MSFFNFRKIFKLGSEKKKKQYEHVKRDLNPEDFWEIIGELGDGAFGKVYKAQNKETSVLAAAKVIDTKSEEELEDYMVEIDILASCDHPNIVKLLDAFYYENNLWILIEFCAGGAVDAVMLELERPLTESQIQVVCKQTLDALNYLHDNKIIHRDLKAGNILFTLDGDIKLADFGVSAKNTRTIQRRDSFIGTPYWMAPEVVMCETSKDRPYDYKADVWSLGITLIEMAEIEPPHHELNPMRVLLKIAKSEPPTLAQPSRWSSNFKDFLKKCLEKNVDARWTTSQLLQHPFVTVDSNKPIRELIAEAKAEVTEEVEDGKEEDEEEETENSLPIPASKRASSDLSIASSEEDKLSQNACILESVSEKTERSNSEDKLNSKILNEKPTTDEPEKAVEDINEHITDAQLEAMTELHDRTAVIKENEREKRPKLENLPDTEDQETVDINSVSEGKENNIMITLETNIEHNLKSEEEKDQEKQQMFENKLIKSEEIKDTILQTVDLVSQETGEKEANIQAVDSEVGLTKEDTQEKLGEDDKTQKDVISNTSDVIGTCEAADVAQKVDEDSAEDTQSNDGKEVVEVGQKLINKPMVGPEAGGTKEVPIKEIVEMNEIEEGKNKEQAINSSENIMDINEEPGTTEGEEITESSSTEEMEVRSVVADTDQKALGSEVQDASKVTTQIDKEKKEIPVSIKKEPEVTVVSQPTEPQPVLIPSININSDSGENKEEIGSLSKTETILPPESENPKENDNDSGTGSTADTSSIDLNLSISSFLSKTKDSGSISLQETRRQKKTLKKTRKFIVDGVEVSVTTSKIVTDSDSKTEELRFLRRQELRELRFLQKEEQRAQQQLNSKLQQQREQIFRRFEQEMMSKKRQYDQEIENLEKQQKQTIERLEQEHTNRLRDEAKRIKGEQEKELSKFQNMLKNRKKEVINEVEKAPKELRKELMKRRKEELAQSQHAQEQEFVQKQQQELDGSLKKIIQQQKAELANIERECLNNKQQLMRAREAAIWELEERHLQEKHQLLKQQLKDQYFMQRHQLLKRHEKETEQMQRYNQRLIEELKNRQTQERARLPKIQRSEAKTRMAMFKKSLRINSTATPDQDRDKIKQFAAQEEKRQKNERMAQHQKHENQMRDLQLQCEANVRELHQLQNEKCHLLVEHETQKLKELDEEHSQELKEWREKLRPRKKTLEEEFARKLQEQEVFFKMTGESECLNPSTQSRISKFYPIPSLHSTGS

T1 sequence (P37173 23-567): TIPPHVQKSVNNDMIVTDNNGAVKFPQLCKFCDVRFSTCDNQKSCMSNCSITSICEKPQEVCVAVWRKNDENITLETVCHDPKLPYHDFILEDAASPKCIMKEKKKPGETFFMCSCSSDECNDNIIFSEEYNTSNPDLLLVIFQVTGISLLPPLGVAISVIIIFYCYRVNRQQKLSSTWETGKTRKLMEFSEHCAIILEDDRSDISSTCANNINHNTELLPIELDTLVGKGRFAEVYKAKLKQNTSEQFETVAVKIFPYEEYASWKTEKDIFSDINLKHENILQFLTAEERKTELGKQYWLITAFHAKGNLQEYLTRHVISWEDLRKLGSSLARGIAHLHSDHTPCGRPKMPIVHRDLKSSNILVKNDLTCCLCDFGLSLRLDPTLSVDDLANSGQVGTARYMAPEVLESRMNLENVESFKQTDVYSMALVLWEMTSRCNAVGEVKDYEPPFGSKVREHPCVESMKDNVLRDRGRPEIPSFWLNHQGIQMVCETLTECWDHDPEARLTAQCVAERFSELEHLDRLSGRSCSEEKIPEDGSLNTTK
Chain of CAMKK2 (Q96RR4 whole entry): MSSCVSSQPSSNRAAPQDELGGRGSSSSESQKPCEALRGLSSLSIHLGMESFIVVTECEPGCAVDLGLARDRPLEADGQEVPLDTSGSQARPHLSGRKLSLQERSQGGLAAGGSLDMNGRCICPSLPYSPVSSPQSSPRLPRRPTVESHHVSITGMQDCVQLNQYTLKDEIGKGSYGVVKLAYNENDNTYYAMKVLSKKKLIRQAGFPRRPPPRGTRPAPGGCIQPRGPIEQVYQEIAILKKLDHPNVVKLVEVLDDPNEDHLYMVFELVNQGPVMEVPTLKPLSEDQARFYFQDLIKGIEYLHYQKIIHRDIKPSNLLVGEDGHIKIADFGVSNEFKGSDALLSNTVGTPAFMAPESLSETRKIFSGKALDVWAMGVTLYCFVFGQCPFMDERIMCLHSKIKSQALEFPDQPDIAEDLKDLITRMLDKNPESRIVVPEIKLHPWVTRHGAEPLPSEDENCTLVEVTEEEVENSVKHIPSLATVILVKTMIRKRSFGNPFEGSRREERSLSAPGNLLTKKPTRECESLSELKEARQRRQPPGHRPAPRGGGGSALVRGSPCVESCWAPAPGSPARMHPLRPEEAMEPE
Chain of CAMK1d (Q8IU85 whole entry): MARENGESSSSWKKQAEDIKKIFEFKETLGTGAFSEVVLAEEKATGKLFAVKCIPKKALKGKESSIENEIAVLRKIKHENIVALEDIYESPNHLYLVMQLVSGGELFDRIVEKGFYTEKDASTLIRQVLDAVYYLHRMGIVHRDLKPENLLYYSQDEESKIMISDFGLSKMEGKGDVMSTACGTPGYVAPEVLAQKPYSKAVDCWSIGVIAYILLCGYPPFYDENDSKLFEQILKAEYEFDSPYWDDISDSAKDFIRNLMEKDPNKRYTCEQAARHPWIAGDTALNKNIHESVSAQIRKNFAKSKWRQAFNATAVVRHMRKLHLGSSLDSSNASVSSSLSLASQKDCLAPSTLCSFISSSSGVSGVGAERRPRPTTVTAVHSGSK
Chain of CDK5/P25 (Q00535 whole entry): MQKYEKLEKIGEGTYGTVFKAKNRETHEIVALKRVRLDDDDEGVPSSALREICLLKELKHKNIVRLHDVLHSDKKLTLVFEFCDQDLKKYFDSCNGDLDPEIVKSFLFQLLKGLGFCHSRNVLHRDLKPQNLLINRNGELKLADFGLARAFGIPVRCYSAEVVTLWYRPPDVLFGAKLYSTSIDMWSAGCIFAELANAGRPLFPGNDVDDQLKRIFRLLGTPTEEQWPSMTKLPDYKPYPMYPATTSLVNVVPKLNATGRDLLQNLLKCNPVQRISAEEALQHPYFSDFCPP
Chain of CDK5/P25 (Q15078 99-307 partner limits assumed): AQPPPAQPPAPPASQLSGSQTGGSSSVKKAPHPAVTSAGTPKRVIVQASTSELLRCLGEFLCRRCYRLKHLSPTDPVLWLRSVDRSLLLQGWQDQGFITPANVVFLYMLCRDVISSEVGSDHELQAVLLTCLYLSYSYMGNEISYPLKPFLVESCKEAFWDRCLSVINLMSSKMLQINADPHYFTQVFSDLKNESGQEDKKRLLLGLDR
Chain of TLK2 (Q86UE8 whole entry): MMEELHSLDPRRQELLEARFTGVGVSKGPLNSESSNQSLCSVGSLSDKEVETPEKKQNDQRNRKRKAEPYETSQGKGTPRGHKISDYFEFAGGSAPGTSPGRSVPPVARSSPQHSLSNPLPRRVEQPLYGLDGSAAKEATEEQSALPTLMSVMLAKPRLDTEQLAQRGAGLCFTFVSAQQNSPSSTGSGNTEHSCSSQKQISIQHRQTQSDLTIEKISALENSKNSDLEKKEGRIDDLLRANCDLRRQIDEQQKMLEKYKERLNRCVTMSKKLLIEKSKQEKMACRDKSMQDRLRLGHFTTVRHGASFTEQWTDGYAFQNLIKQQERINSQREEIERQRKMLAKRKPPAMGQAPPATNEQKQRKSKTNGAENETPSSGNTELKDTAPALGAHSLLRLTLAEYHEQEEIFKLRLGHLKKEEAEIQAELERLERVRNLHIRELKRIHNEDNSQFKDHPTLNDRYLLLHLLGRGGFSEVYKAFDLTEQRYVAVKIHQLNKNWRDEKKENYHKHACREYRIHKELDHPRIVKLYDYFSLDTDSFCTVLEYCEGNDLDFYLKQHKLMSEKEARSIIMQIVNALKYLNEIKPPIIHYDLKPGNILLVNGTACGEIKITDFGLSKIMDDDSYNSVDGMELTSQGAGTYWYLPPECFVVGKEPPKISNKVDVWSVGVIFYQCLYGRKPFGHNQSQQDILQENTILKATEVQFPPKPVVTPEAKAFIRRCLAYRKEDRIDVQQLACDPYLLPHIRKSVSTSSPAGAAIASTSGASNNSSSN

For the compound `COc1cc(-c2cncc(-c3ccc(N4CCN(C)CC4)cc3)c2C)cc(F)c1C(N)=O` [Compound 26a, 2-Fluoro-6-methoxy-4-(4-methyl-5-(4-(4-methylpiperazin-1-yl)phenyl)pyridin-3-yl)benzamide], the “% enzyme activity” value in assay [1] turned out to be 97.44%; in assay [2], 99.93%; in [3], 70.52%; in assay [4], 91.77%; in assay [5], 95.61%. The remaining activity at 1 µM in assay [1] stood at 103%; in assay [6], 98.5%; in assay [7], 98.4%; in assay [8] it was 80.7%; in [9], 100%.
Consider `COc1cc(-c2cncc(-c3ccc(N4C[C@@H](C)N(C)[C@@H](C)C4)cc3)c2C)cc(F)c1C(N)=O` [Compound 26c, 2-Fluoro-6-methoxy-4-(4-methyl-5-(4-((3R,5S)-3,4,5-trimethylpiperazin-1-yl)phenyl)pyridin-3-yl)benzamide], for which the “% enzyme activity” value is listed as 105.33% in assay [1]; 96.34% in assay [2]; 75.78% in assay [3]; 94.09% in [4]; 89.84% in [5]. Besides, the remaining activity at 1 µM in [1] turned out to be 106%; in assay [6], 99.9%; in assay [7], 99.4%; in assay [8] it was 96.1%; in assay [9] it was 101%.
